# Experimental data reported in publication PMC6016998 (2018).
# Test system: ochratoxin A aptamer, 0 complementary bp (no tail) (DNA, aptamer) GATCGGGTGTGGGTGGCGTAAAGGGAGCATCGGACA
# Test: electrochemical aptamer-based sensor, square wave voltammetry (KDM)
# Conditions: 1X PBS pH 7.4, room temperature
Compound,"KD (1X PBS (Na+, K+; concentrations not given), undiluted iced coffee rows (ions not given), flowing, KDM of 240 Hz and 20 Hz) [µM]","binding (tested at 10 µM only, no KDM signal)"
C[C@@H]1Cc2c(Cl)cc(C(=O)N[C@@H](Cc3ccccc3)C(=O)O)c(O)c2C(=O)O1,6.5 ± 0.6,–
CCCC[C@@H](C)[C@@H](OC(=O)C[C@@H](CC(=O)O)C(=O)O)[C@H](C[C@@H](C)C[C@H](O)CCCC[C@@H](O)C[C@H](O)[C@H](C)N)OC(=O)C[C@@H](CC(=O)O)C(=O)O,–,no
